Laboratory results: paper PMC4398506, “Remodeling of host phosphatidylcholine by Chlamydia acyltransferase is regulated by acyl-CoA binding protein ACBD6 associated with lipid droplets” (MicrobiologyOpen, 2015)

Biological target: T1, CT775 (Chlamydia LPCAT) (Chlamydia trachomatis, UniProt O84780)
T1 construct: gene CT_775; full-length gene (253 residues predicted) in pET28a, His-tagged, expressed in E. coli BL21DE3; cleared lysate or membrane fraction, not purified
Assay: radiometric TLC assay of […]PC formation from lysoPC
Format: biochemical
Settings: labelled compound; acyl donor with 20 umol/L egg lysoPC; pH 7.0, 37 C, Tween-20

T1 sequence (O84780 entry or part of it): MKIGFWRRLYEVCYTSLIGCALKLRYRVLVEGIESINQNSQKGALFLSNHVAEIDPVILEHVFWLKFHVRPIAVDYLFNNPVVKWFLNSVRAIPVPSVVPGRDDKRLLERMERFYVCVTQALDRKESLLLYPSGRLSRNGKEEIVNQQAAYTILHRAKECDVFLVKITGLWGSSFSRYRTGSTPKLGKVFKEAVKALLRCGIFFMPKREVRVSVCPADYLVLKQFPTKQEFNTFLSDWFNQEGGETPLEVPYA

SMILES: CCCCCCCC/C=C\CCCCCCCC(=O)SCCNC(=O)CCNC(=O)[C@H](O)C(C)(C)COP(=O)(O)OP(=O)(O)OC[C@H]1O[C@@H](n2cnc3c(N)ncnc32)[C@H](O)[C@@H]1OP(=O)(O)O [C18:1-CoA]
- radiometric TLC assay of [14C]PC formation from lysoPC: The rate of PC formation by CT775 was dependent on the concentration of oleoyl-CoA
